Assay results from patent publication US9809861B2, “Method of evaluating inhibitory effect on damp-dry malodor” (Kao Corporation, priority 2012, dated 2017).

Columns and labels:
Moraxella sp. KMC4-1 = assay: Growth-inhibitory test; type: cell-based; conditions: SCD liquid medium, 24 hours, 35° C., (4) 500 ppm; for Growth-inhibitory effect: initial 10^4 CFU/mL, Substance (1) 10 ppm, (2)(3)(5)(6) 100 ppm; for Growth-inhibitory effect: bacteria number decrease compared to the control: Substance (2) 100 ppm
Protocol: To 4 mL of SCD liquid medium (manufactured by NIHON PHARMACEUTICAL CO., LTD), the substances (1) to (7) each were added so as to be the final concentration described in Table 15. As a control, a medium system not added with any test substance was also prepared. To the medium, the precultured Moraxella sp. KMC4-1 was inoculated so as to be the initial concentration of 10^4 CFU/mL and cultured for 24 hours at 35° C. while shaking (160 rpm). After that, it was subjected to serial dilution using LP dilution solution (NIHON PHARMACEUTICAL CO., LTD). Then, by using SCD-LP agar medium (NIHON PHARMACEUTICAL CO., LTD), the number of bacteria remained alive was determined.
As for the growth-inhibitory and the bactericidal effect, the evaluation was made as follows: compared to the control, when there was the bacteria number decrease of log 3 or more, it was rated as “A”; when there was the bacteria number decrease of log 1 or more but less than log 3, it was rated as “B”; and when there was the bacteria number decrease of less than log 1, it was rated as “C”.

fadB gene = assay: Change in expression amount of fadB gene in the presence of test substance (real time PCR); type: cell-based, Moraxella sp. KMC4-1; conditions: for Change in the expression amount of fadB gene: Substance (1) 10 ppm, (2)(3)(5)(6) 100 ppm, (4) 500 ppm; for expression amount of the fadB gene by the microorganisms: summary of Table 12
Protocol: (§1) The substances (1) to (7) described below each were added to 4 mL SCD liquid medium (manufactured by NIHON PHARMACEUTICAL CO., LTD). As a control, a medium system not added with any test substance was also prepared. To these medium, one platinum loop of precultured Moraxella sp. KMC4-1 was inoculated and cultured for 24 hours at 35 C while shaking (160 rpm).
(§2) To the cell liquid cultured for 24 hours, 10 mg of 16-methyloctadecanoic acid was added as a sebaceous dirt component. After culturing again for 6 hours at 35° C., the cells were collected. As a control, a system not added with a sebaceous dirt component was also cultured and cells were collected therefrom.
(§3) An RNA sample was prepared from the collected cells in the same manner as in the test example 1.
(§4) Reaction solutions for real time PCR were prepared in the same manner as above, except that, instead of the primer set including the primer containing the oligonucleotide having the base sequence set forth in SEQ ID NO: 13 and the primer containing the oligonucleotide having the base sequence set forth in SEQ ID NO: 14, the primer set described in Tables 11 to 13 was used.
(§5) The reaction solutions for real time PCR each were subjected to a gene amplification by using an automatic gene amplification thermal cycler DICE Real time system II (manufactured by Takara Bio Inc.), and then the expression amount of each of the fatty acid desaturase gene (the Δ9desaturase gene) and the β oxidation-relating enzyme genes (the fadB gene and the fadD gene) was measured. PCR reaction conditions were 40 cycles of (i) a thermal denaturation reaction at 95° C. for 20 seconds, and (ii) an annealing reaction and an elongation reaction at 60° C. for 30 seconds.
(§6) By having the gene expression of 16S rRNA as an internal standard, and having the gene expression amount when adding no sebaceous dirt component and no test substance as a reference value, change in expression amount of each gene was calculated relative to the reference value. A sample, in which the expression amount of the gene was ½ times or less the reference value, was rated as “A”; a sample, in which the expression amount of the gene was more than ½ times and ⅔ times or less the reference value, was rated as “B”; and a sample, in which the expression amount of the gene was more than ⅔ times the reference value, was rated as “C”.

Δ9desaturase gene = assay: Change in expression amount of Δ9desaturase gene in the presence of test substance (real time PCR); type: cell-based, Moraxella sp. KMC4-1; conditions: for Change in the expression amount of Δ9desaturase gene: Substance (1) 10 ppm, (2)(3)(5)(6) 100 ppm, (4) 500 ppm
Protocol: as §1, §2, §3
By mixing 2 μL solution of the prepared template diluted ×20 with distilled sterile water, 12.5 μL of TaKaRa SYBR Premix EX Taq (trade name, manufactured by Takara Bio Inc.), 0.5 μL of the primer (des_F1, […]) containing the oligonucleotide having the base sequence set forth in SEQ ID NO: 13, 0.5 μL of the primer (des_R1, […]) containing the oligonucleotide having the base sequence set forth in SEQ ID NO: 14 and 9.5 μL of distilled sterile water, 25 μL reaction solution for real time PCR was prepared.
as §4, §5, §6

[1] = primers SEQ ID NO: 13 / 14, 16-methyloctadecanoic acid added, relative to reference without sebaceous dirt component and test substance

SMILES: CCCCCCCCCC=O [Substance (1)]
- Growth-inhibitory effect (Moraxella sp. KMC4-1): C (the bacteria number decrease of less than log 1)
- Change in the expression amount of fadB gene (fadB gene; primers SEQ ID NO: 25 / 26): C (the expression amount of the gene was more than ⅔ times the reference value)
- Change in the expression amount of fadB gene (fadB gene; primers SEQ ID NO: 27 / 28): C (the expression amount of the gene was more than ⅔ times the reference value)
- Change in the expression amount of fadB gene (fadB gene; primers SEQ ID NO: 29 / 30): C (the expression amount of the gene was more than ⅔ times the reference value)
- Change in the expression amount of fadB gene (fadB gene; primers SEQ ID NO: 31 / 32): C (the expression amount of the gene was more than ⅔ times the reference value)
- Change in the expression amount of Δ9desaturase gene (Δ9desaturase gene; [1]): B (the expression amount of the gene was more than ½ times and ⅔ times or less the reference value)
- Change in the expression amount of Δ9desaturase gene (Δ9desaturase gene; primers SEQ ID NO: 15 / 16): B (the expression amount of the gene was more than ½ times and ⅔ times or less the reference value)
- Change in the expression amount of Δ9desaturase gene (Δ9desaturase gene; primers SEQ ID NO: 17 / 18): A (the expression amount of the gene was ½ times or less the reference value)
- Change in the expression amount of Δ9desaturase gene (Δ9desaturase gene; primers SEQ ID NO: 19 / 20): A (the expression amount of the gene was ½ times or less the reference value)
- Change in the expression amount of Δ9desaturase gene (Δ9desaturase gene; primers SEQ ID NO: 21 / 22): B (the expression amount of the gene was more than ½ times and ⅔ times or less the reference value)
- Change in the expression amount of Δ9desaturase gene (Δ9desaturase gene; primers SEQ ID NO: 23 / 24): B (the expression amount of the gene was more than ½ times and ⅔ times or less the reference value)
- expression amount of the Δ9desaturase gene by the microorganisms (Δ9desaturase gene; summary of Table 11): decreased

SMILES: CC(=O)OC(C)(C)Cc1ccccc1 [Substance (2)]
- Growth-inhibitory effect: bacteria number decrease compared to the control (Moraxella sp. KMC4-1): 2 log
- Growth-inhibitory effect (Moraxella sp. KMC4-1): B (the bacteria number decrease of log 1 or more but less than log 3)
- Change in the expression amount of fadB gene (fadB gene; primers SEQ ID NO: 25 / 26): A (the expression amount of the gene was ½ times or less the reference value)
- Change in the expression amount of fadB gene (fadB gene; primers SEQ ID NO: 27 / 28): A (the expression amount of the gene was ½ times or less the reference value)
- Change in the expression amount of fadB gene (fadB gene; primers SEQ ID NO: 29 / 30): A (the expression amount of the gene was ½ times or less the reference value)
- Change in the expression amount of fadB gene (fadB gene; primers SEQ ID NO: 31 / 32): A (the expression amount of the gene was ½ times or less the reference value)
- expression amount of the fadB gene by the microorganisms (fadB gene): decreased
- Change in the expression amount of Δ9desaturase gene (Δ9desaturase gene; [1]): C (the expression amount of the gene was more than ⅔ times the reference value)
- Change in the expression amount of Δ9desaturase gene (Δ9desaturase gene; primers SEQ ID NO: 15 / 16): B (the expression amount of the gene was more than ½ times and ⅔ times or less the reference value)
- Change in the expression amount of Δ9desaturase gene (Δ9desaturase gene; primers SEQ ID NO: 17 / 18): B (the expression amount of the gene was more than ½ times and ⅔ times or less the reference value)
- Change in the expression amount of Δ9desaturase gene (Δ9desaturase gene; primers SEQ ID NO: 19 / 20): B (the expression amount of the gene was more than ½ times and ⅔ times or less the reference value)
- Change in the expression amount of Δ9desaturase gene (Δ9desaturase gene; primers SEQ ID NO: 21 / 22): C (the expression amount of the gene was more than ⅔ times the reference value)
- Change in the expression amount of Δ9desaturase gene (Δ9desaturase gene; primers SEQ ID NO: 23 / 24): C (the expression amount of the gene was more than ⅔ times the reference value)

SMILES: CNc1ccccc1C(=O)OC [Substance (3)]
- Growth-inhibitory effect (Moraxella sp. KMC4-1): C (the bacteria number decrease of less than log 1)
- Change in the expression amount of fadB gene (fadB gene; primers SEQ ID NO: 25 / 26): A (the expression amount of the gene was ½ times or less the reference value)
- Change in the expression amount of fadB gene (fadB gene; primers SEQ ID NO: 27 / 28): A (the expression amount of the gene was ½ times or less the reference value)
- Change in the expression amount of fadB gene (fadB gene; primers SEQ ID NO: 29 / 30): A (the expression amount of the gene was ½ times or less the reference value)
- Change in the expression amount of fadB gene (fadB gene; primers SEQ ID NO: 31 / 32): B (the expression amount of the gene was more than ½ times and ⅔ times or less the reference value)
- expression amount of the fadB gene by the microorganisms (fadB gene): decreased
- Change in the expression amount of Δ9desaturase gene (Δ9desaturase gene; [1]): C (the expression amount of the gene was more than ⅔ times the reference value)
- Change in the expression amount of Δ9desaturase gene (Δ9desaturase gene; primers SEQ ID NO: 15 / 16): C (the expression amount of the gene was more than ⅔ times the reference value)
- Change in the expression amount of Δ9desaturase gene (Δ9desaturase gene; primers SEQ ID NO: 17 / 18): C (the expression amount of the gene was more than ⅔ times the reference value)
- Change in the expression amount of Δ9desaturase gene (Δ9desaturase gene; primers SEQ ID NO: 19 / 20): C (the expression amount of the gene was more than ⅔ times the reference value)
- Change in the expression amount of Δ9desaturase gene (Δ9desaturase gene; primers SEQ ID NO: 21 / 22): C (the expression amount of the gene was more than ⅔ times the reference value)
- Change in the expression amount of Δ9desaturase gene (Δ9desaturase gene; primers SEQ ID NO: 23 / 24): C (the expression amount of the gene was more than ⅔ times the reference value)

SMILES: CCCCCCCC/C=C\CCCCCCCC(=O)O [Substance (4)]
- Growth-inhibitory effect: bacteria number decrease compared to the control (Moraxella sp. KMC4-1): 2 log
- Growth-inhibitory effect (Moraxella sp. KMC4-1): B (the bacteria number decrease of log 1 or more but less than log 3)
- Change in the expression amount of fadB gene (fadB gene; primers SEQ ID NO: 25 / 26): A (the expression amount of the gene was ½ times or less the reference value)
- Change in the expression amount of fadB gene (fadB gene; primers SEQ ID NO: 27 / 28): A (the expression amount of the gene was ½ times or less the reference value)
- Change in the expression amount of fadB gene (fadB gene; primers SEQ ID NO: 29 / 30): A (the expression amount of the gene was ½ times or less the reference value)
- Change in the expression amount of fadB gene (fadB gene; primers SEQ ID NO: 31 / 32): A (the expression amount of the gene was ½ times or less the reference value)
- expression amount of the fadB gene by the microorganisms (fadB gene): decreased
- Change in the expression amount of Δ9desaturase gene (Δ9desaturase gene; [1]): C (the expression amount of the gene was more than ⅔ times the reference value)
- Change in the expression amount of Δ9desaturase gene (Δ9desaturase gene; primers SEQ ID NO: 15 / 16): C (the expression amount of the gene was more than ⅔ times the reference value)
- Change in the expression amount of Δ9desaturase gene (Δ9desaturase gene; primers SEQ ID NO: 17 / 18): C (the expression amount of the gene was more than ⅔ times the reference value)
- Change in the expression amount of Δ9desaturase gene (Δ9desaturase gene; primers SEQ ID NO: 19 / 20): C (the expression amount of the gene was more than ⅔ times the reference value)
- Change in the expression amount of Δ9desaturase gene (Δ9desaturase gene; primers SEQ ID NO: 21 / 22): C (the expression amount of the gene was more than ⅔ times the reference value)
- Change in the expression amount of Δ9desaturase gene (Δ9desaturase gene; primers SEQ ID NO: 23 / 24): C (the expression amount of the gene was more than ⅔ times the reference value)
